Data on four molecules can be found in publication PMC3360681, “Comparison of Recombinant Human Haptocorrin Expressed in Human Embryonic Kidney Cells and Native Haptocorrin” (PLoS ONE, 2012).

The target in one test is T1, TC (transcobalamin) (Homo sapiens, UniProt P20062).
T1 sequence (P20062 19-427): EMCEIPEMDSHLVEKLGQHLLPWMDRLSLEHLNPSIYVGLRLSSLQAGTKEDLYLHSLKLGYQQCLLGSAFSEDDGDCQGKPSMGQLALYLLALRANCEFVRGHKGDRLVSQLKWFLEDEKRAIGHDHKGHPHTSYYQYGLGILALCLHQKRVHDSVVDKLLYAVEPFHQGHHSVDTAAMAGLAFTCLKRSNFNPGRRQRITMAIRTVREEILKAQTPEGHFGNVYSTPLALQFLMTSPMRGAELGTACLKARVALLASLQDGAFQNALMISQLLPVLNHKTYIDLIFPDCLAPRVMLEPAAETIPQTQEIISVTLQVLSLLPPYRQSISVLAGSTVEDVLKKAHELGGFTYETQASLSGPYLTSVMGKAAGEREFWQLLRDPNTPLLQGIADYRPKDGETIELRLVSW
The test can be described thus: Concurrent binding kinetics test with CBC and Cbl. The note with it: data not shown.

In test [1] the test system is native HC (native human haptocorrin). The arrangement: method as in PMID 17487979. As to conditions: 20°C, cited from earlier work; for k−s dissociation rate constant: pH 7.5, measured over a period of 100 h; for k+s binding rate constant: pH 7.5.
For a further test, the target named is IF (intrinsic factor) (Homo sapiens, UniProt P27352). Kind of test: Concurrent binding kinetics test with CBC and Cbl. The note with it: data not shown.
Test [2] deals with T2, rhHC (recombinant human haptocorrin) (Homo sapiens, UniProt P20061).
T2 construct: Myc-His-tag (Myc + 6xHis, from pcDNA4/myc-His A) (C, cleaved yes); made in house
T2 sequence (P20061 24-433): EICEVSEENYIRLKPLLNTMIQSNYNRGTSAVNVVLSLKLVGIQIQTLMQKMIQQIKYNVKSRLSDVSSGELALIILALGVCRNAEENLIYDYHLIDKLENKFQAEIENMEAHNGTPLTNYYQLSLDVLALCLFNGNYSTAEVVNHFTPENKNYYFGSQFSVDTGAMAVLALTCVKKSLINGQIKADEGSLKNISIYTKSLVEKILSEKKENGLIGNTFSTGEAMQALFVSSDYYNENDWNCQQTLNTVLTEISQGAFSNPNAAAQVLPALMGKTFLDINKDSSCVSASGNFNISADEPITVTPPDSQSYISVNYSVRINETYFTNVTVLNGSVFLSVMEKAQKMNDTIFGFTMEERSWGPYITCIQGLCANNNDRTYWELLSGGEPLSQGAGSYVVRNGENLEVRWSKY
The test can be described thus: Binding and dissociation kinetics with fluorescent Cbl-conjugate CBC (stopped-flow competition and chase experiments). The note with it: pH 7.5. Here is the method: A more detailed examination of the binding kinetics was performed in a competitive assay, where the fluorescent ligand CBC [32] alone or in the mixture with a test ligand (Cbl or Cbi) reacted with rhHC over time. Attachment of CBC to Cbl-binding proteins causes increase in the quantum yield of the fluorophore, which facilitates monitoring of the protein - CBC interactions, [33]. Presence of a non-fluorescent ligand X decreases the signal, because the binding goes along two competing routes HC•CBC ← HC → HC·X (reactions behave as irreversible processes within 0.2 s). The binding and dissociation rate constants k +s and k−s, as well as the equilibrium dissociation constant KD were calculated for all ligands by computer fitting as explained elsewhere and the results are listed in Table 2. Compared to previously reported values for native HC, all current binding rate constants (k +s) were 2–3 fold lower. This difference could not be explained by possible concentration error (±10%, examined by simulations).
The dissociation kinetics was examined in chase experiments which obeyed (within the examined time scale) one of the below schemes: HC·CBC → HC → HC·X or HC·X → HC → HC·CBC (first step was rate limiting). The dissociation kinetics of the ligands CBC, Cbl and Cbi was measured after formation of the corresponding complexes with rhHC, followed by addition of external CBC (or Cbl in the case of CBC itself) (Figure 5B). The dissociation rate constants were then calculated from linear slopes (Table 2). […] It should be understood, that evaluation of rate constants below 3 · 10^−6 s^−1 within the examined time scale cannot be precise, and that the records were used for comparison of different ligands rather than for precise quantification of k −s.
[…] The binding kinetics was monitored by means of stopped flow method (DX.17 MV stopped-flow spectro-fluorometer, Applied Biophysics, UK) using the fluorescent response from a Cbl-conjugate CBC [32], [33], excitation 525 nm, emission >550 nm, slit 1.5 mm, voltage 390, bandpass of 18.6 nm, light path of 1 cm. […] The relevant rate constants of association were calculated by computer fitting, as described elsewhere, [33].
The dissociation reactions were monitored on fluorometer Varian Eclipse (Varian, Australia) using the fluorescent response of CBC, excitation 525 nm (slit 5 nm), emission 550 nm (slit 5 nm), photomultiplier 600 V. In one setup the pre-formed rhHC·CBC complex (1 µM, 2 min) was mixed with free Cbl (1 µM), and decrease in fluorescence was registered due to rhHC·CBC ↔ Cbl exchange. Dissociation of the non-fluorescent ligands (Cbl or Cbi) was measured in similar chase experiments. […] The endogenous ligand dissociated from the protein (rate limiting step), whereupon CBC immediately bound to rhHC and increased fluorescence.

Test [3] relates to HepG2 cells expressing the asialoglycoprotein receptor. Kind of test: Internalisation of 125I-labelled proteins into HepG2 cells. As to conditions: 125I-labelled protein. Type of test: cell-based. The source says:
Depending on the source of expression, different isoforms of HC exist in human blood and extracellular fluids. […] We tested whether ^125I-labelled rhHC would be readily taken up by HepG2 cells expressing the asialoglycoprotein receptor involved in HC clearance. […] Only after removal of terminal sialic acid by neuraminidase, rhHC and native HC were internalised. Removal of the terminal sialic acid residues was qualitatively determined by SDS/PAGE (Figure 6A).
The proteins were labelled with ^125I using the Iodogen method (Pierce). Labelled protein was purified on a PD10 column (GE healthcare, Glattbrugg, Switzerland). HEPG2 cells were incubated in twelve-well plates in triplicates with about 1 µg of labelled protein for 1 h at 4°C. The plates were then incubated for 0, 1.5, 3, 6 h at 37°C for internalisation. After these times, the cells were washed twice with PBS/0.1% bovine serum albumin and then incubated for 5 min with ice-cold acid wash buffer (50 mM Glycine-HCl, 100 mM NaCl, pH 2.8) to remove the cell-surface bound radioligand. Subsequently, cells were solubilised by incubation with 1 N NaOH for 5 min. at 37°C. At each time point the radioactivity in the cell medium (released), the acid wash (cell-surface bound) and the solubilised cells (internalised) were determined with a NaI-γ-counter (Cobra II Packard, Canberra Packard GmbH, Frankfurt, Germany).

Test [4] is described as follows: Active protein fraction (AP) from absorbance ratio A280/A356 after saturation with aquo-Cbl. Type of test: binding. The source says:
The spectral features of the complex rhHC•aquo-Cbl were explored further when rhHC was saturated with aquo-Cbl added in steps at concentrations below the total binding capacity of the protein (Figure 3B). This allowed calculation of the molar absorbance coefficients of aquo-Cbl when bound to rhHC (Table 1). These parameters helped to evaluate the active protein fraction (AP) as previously shown for IF [27]. For rhHC the value of AP was found from the ratio of R = A280/A356 according to the equation below and the values of absorbance coefficients from Table 1. [drawing 1]
Prior to AP measurements, rhHC was saturated with an excess of aquo-Cbl, free aquo-Cbl was bound to the specific tetrazole adsorbent, whereupon the spectrum of rhHC·Cbl was recorded and compared to the control sample (buffer + aquo-Cbl + adsorbent). After subtraction of the control spectrum, the absorbance ratio and AP were calculated.
rhHC (10 µM) was saturated with an excess of CNCbl (20 µM) and subjected to dialysis against a 50-fold volume excess of 5 M GdnHCl (30°C, 180 rpm). The solution was changed at days 2 and 3. Incubation was stopped after day 4, whereupon rhHC was renatured by dialysis against 0.2 M Na-phosphate buffer pH 7.5, see also ref. [31].

Where [5] appears, read: rhHC preparation with active protein fraction 0.95.
Where [6] appears, read: after removal of terminal sialic acid by neuraminidase.
[7] abbreviates: without neuraminidase treatment, time span of 6 h.

IF (intrinsic factor), sequence (P27352 19-417, species assumed): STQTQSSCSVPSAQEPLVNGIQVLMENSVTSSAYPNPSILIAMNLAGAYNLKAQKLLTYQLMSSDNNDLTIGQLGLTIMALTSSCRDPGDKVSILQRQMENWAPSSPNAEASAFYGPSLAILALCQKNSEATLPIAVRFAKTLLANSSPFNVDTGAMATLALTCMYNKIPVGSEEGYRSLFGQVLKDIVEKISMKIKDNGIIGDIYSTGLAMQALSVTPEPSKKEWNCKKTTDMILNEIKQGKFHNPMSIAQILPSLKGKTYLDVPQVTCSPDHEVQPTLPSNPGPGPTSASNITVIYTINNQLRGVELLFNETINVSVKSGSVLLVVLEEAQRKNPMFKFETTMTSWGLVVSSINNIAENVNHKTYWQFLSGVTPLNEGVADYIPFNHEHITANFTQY

Take `C/C1=C2/[N-][C@H]([C@H](CC(N)=O)[C@@]2(C)CCC(=O)NC[C@@H](C)OP(=O)([O-])O[C@H]2[C@@H](O)[C@@H](n3cnc4cc(C)c(C)cc43)O[C@@H]2CO)[C@]2(C)N=C(/C(C)=C3N=C(/C=C4N=C1[C@@H](CCC(N)=O)C\4(C)C)[C@@H](CCC(N)=O)[C@]\3(C)CC(N)=O)[C@@H](CCC(N)=O)[C@]2(C)CC(N)=O.[Co]` [Cbl, cobalamin]: the “k+s binding rate constant” value was 60–70 · 10^6 M^−1 s^−1 at TC (transcobalamin), 9e+07 M⁻¹ s⁻¹ in test [1], 60–70 · 10^6 M^−1 s^−1 on IF (intrinsic factor) and “X/19/X· 10^6 10^6 M^−1s^−1” in test [2] (setting [5]). Moreover, the “k−s dissociation rate constant” value in test [1] is “≈5 · 10^−7 s^−1”; in test [2] (setting [5]), “X/≤3/X· 10^−6 10^−6 s^−1”.
For the molecule `CC1=C2[N-][C@H]([C@H](CC(N)=O)[C@@]2(C)CCC(=O)NC[C@@H](C)O)[C@]2(C)N=C(C(C)=C3N=C(C=C4N=C1[C@@H](CCC(N)=O)C4(C)C)[C@@H](CCC(N)=O)[C@]3(C)CC(N)=O)[C@@H](CCC(N)=O)[C@]2(C)CC(N)=O.[Co+2]` [Cbi, cobinamide], the “k−s dissociation rate constant” value in test [1] is recorded as “≈5 · 10^−7 s^−1”. The “k+s binding rate constant” value in test [1] was 7.3e+07 M⁻¹ s⁻¹; in test [2] (setting [5]), 21 10^6 M^−1s^−1; in test [2] (rhHC preparation with active protein fraction 0.99) it was 33 10^6 M^−1s^−1.

B1: native HC: native human haptocorrin purified from plasma of a patient with hepatocellular carcinoma (protein)
chain: EICEVSEENYIRLKPLLNTMIQSNYNRGTSAVNVVLSLKLVGIQIQTLMQKMIQQIKYNVKSRLSDVSSGELALIILALGVCRNAEENLIYDYHLIDKLENKFQAEIENMEAHNGTPLTNYYQLSLDVLALCLFNGNYSTAEVVNHFTPENKNYYFGSQFSVDTGAMAVLALTCVKKSLINGQIKADEGSLKNISIYTKSLVEKILSEKKENGLIGNTFSTGEAMQALFVSSDYYNENDWNCQQTLNTVLTEISQGAFSNPNAAAQVLPALMGKTFLDINKDSSCVSASGNFNISADEPITVTPPDSQSYISVNYSVRINETYFTNVTVLNGSVFLSVMEKAQKMNDTIFGFTMEERSWGPYITCIQGLCANNNDRTYWELLSGGEPLSQGAGSYVVRNGENLEVRWSKY
modifications: 125I label (Iodogen method); glycosylated
notes: native human haptocorrin purified from plasma of a patient with hepatocellular carcinoma
Regarding B1, the entries for the “Internalisation into HepG2 cells” value in test [3] (setting [6]) and in test [3] (setting [7]) were “internalised” and “not internalised”, respectively.

B2: rhHC: recombinant human haptocorrin expressed in HEK293 cells, tag removed, four excessive C-terminal residues (…LVPR) (protein)
chain: EICEVSEENYIRLKPLLNTMIQSNYNRGTSAVNVVLSLKLVGIQIQTLMQKMIQQIKYNVKSRLSDVSSGELALIILALGVCRNAEENLIYDYHLIDKLENKFQAEIENMEAHNGTPLTNYYQLSLDVLALCLFNGNYSTAEVVNHFTPENKNYYFGSQFSVDTGAMAVLALTCVKKSLINGQIKADEGSLKNISIYTKSLVEKILSEKKENGLIGNTFSTGEAMQALFVSSDYYNENDWNCQQTLNTVLTEISQGAFSNPNAAAQVLPALMGKTFLDINKDSSCVSASGNFNISADEPITVTPPDSQSYISVNYSVRINETYFTNVTVLNGSVFLSVMEKAQKMNDTIFGFTMEERSWGPYITCIQGLCANNNDRTYWELLSGGEPLSQGAGSYVVRNGENLEVRWSKYLVPR
modifications: 125I label (Iodogen method); glycosylated, highly sialylated; left off: Myc, C-terminal, cleaved | His6, C-terminal, cleaved
Consider B2, for which the “Internalisation into HepG2 cells” value in test [3] (setting [6]) was “internalised”; in test [3] (setting [7]) it was “not internalised”. The “AP active protein fraction after renaturing” value in test [4] (apo-rhHC after Cbl saturation, GdnHCl dialysis and renaturing, preparation with AP = 0.95 before treatment) stood at 0.95. In test [4] (rhHC), the Cbl binding capacity is reported as 95–99%.
